From US10130615B2, “Benzomorphan analogs and the use thereof” (priority 2014, dated 2018)

Assays:
μ-opioid receptor [1] = molecular target: T1, μ-opioid receptor (Homo sapiens, UniProt P35372); test: cell-based; set-up: purchased Perkin Elmer, Shelton, Conn; details: U2OS cells; for Emax: read-out: β-Arr2 μ Emax; for EC50: read-out: β-Arr2 μ EC50
μ-opioid receptor [2] = molecular target: T1, μ-opioid receptor; test: μ-opioid receptor GTPγS functional assay, U2OS cells; details: for Emax: read-out: GTPγS μ Emax
κ-opioid receptor [3] = molecular target: T2, κ-opioid receptor (Homo sapiens, UniProt P41145); test: κ-opioid receptor GTPγS functional assay, U2OS cells; assay type: biochemical; set-up: expressed in transfected cells; host or cells: U-2 OS; details: U2OS cells; for EC50: read-out: GTPγS κ EC50
Procedure: Plates were incubated for 30 min at a temperature of about 25° C. with shaking.

μ-opioid receptor [4] = molecular target: T1, μ-opioid receptor; test: biochemical; set-up: purchased Perkin Elmer, Shelton, Conn; host or cells: HEK-293 or CHO; details: HEK-293 or CHO cells; for Emax: relative to DAMGO, read-out: GTPγS μ Emax; for EC50: read-out: GTPγS μ EC50
κ-opioid receptor [5] = molecular target: T2, κ-opioid receptor; test: κ-opioid receptor β-Arr2 activity response, U2OS cells; assay type: cell-based; set-up: expressed in transfected cells; host or cells: U-2 OS; details: U2OS cells

T1 sequence (P35372 whole entry, species assumed): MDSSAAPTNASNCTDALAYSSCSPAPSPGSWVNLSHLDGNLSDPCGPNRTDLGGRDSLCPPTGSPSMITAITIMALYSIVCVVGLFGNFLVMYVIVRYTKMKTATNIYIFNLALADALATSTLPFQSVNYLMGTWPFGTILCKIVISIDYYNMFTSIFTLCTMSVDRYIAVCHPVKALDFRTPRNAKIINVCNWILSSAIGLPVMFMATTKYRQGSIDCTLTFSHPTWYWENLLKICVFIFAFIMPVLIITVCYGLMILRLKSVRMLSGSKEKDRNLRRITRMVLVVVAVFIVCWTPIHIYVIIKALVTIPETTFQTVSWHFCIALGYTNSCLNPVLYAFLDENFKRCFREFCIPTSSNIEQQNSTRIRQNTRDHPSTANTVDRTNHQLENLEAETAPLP
T2 sequence (P41145 whole entry): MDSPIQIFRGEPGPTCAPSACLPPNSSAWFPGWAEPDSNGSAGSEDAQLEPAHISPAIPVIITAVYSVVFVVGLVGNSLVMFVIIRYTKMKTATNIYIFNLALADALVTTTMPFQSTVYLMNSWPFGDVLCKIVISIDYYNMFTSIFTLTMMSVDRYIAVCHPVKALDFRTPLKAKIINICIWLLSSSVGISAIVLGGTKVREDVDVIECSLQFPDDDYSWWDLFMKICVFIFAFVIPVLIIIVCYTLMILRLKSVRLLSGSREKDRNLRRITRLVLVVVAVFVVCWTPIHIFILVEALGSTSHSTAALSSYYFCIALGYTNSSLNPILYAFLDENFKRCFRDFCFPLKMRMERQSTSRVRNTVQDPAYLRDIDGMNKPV

Row | Structure (SMILES) | Emax (μ-opioid receptor [1]) [%] | EC50 (μ-opioid receptor [2]) [nM] | Emax (μ-opioid receptor [2]) [%] | Emax (κ-opioid receptor [3]) [%] | EC50 (κ-opioid receptor [3]) [nM] | Emax (μ-opioid receptor [4]) [%] | Emax (κ-opioid receptor [5]) [%] | EC50 (μ-opioid receptor [1]) [nM] | EC50 (μ-opioid receptor [4]) [nM]
1 | C[C@H]1[C@H]2Cc3ccc(O)cc3[C@]1(CCNS(=O)(=O)C1CC1)CCN2CC1CC1 [Compound 6, N-(2-((2R,6S,11R)-3-(cyclopropyl-methyl)-8-hydroxy-11-methyl-2,3,4,5-tetrahydro-2,6-methanobenzo[d]azocin-6(1H)-yl)ethyl)-cyclopropanesulfonamide] | -0.33 ± 0.67 | 0.88 ± 0.095 | 30.7 ± 0.88 | 107 ± 2.65 | 0.072 ± 0.013 | -0.33 ± 0.67 | – | – | –
2 | C[C@H]1[C@H]2Cc3ccc(O)cc3[C@]1(CCNS(C)(=O)=O)CCN2CC1CC1 [Compound 3, N-(2-((2R,6S,11R)-3-(cyclopropyl-methyl)-8-hydroxy-11-methyl-2,3,4,5-tetrahydro-2,6-methanobenzo[d]azocin-6(1H)-yl)ethyl)methanesulfonamide] | 0 | 0.85 ± 0.11 | 16.7 ± 0.33 | 104 ± 2.52 | 0.32 ± 0.031 | – | -0.33 ± 0.67 | – | –
3 | C[C@H]1[C@H]2Cc3ccc(O)cc3[C@]1(CCNC(=O)Nc1ccc(F)cc1)CCN2C [Compound 76, 1-(4-fluorophenyl)-3-(2-((2R,6R,11R)-8-hydroxy-3,11-dimethyl-2,3,4,5-tetrahydro-2,6-methanobenzo[d]azocin-6(1H)-yl)ethyl)urea] | 28.9 ± 1.69 | – | – | – | – | 58.5 ± 2.78 | – | 28.4 ± 3.98 | 28.8 ± 10.5
4 | C[C@H]1[C@H]2Cc3ccc(O)cc3[C@]1(CCNC(=O)NCc1ccccc1)CCN2CC1CC1 [Compound 21, 1-benzyl-3-(2-((2R,6R,11R)-3-(cyclopropylmethyl)-8-hydroxy-11-methyl-2,3,4,5-tetrahydro-2,6-methanobenzo[d]azocin-6(1H)-yl)ethyl)urea] | 30.1 ± 0.81 | – | – | – | – | 54.7 ± 2.63 | – | 0.38 ± 0.11 | 0.28 ± 0.027
5 | C[C@H]1[C@H]2Cc3ccc(O)cc3[C@]1(CCNC(=O)CCc1ccccc1)CCN2C [Compound 85, N-(2-((2R,6R,11R)-8-hydroxy-3,11-dimethyl-2,3,4,5-tetrahydro-2,6-methanobenzo[d]azocin-6(1H)-yl)ethyl)-3-phenylpropanamide] | 39.8 ± 0.77 | – | – | – | – | 69.5 ± 2.23 | – | 6.55 ± 2.88 | 6.51 ± 0.17
6 | C[C@H]1[C@H]2Cc3ccc(O)cc3[C@]1(CCNC(=O)c1ccc(F)cc1)CCN2C [Compound 83, 4-Fluoro-N-(2-((2R,6R,11R)-8-hydroxy-3,11-dimethyl-2,3,4,5-tetrahydro-2,6-methanobenzo[d]azocin-6(1H)-yl)ethyl)benzamide] | 46.5 ± 1.93 | – | – | – | – | 77.2 ± 3.52 | – | 13.8 ± 3.03 | 13.6 ± 3.38
7 | C[C@H]1[C@H]2Cc3ccc(O)cc3[C@]1(CCNS(=O)(=O)c1ccc(F)cc1)CCN2C [Compound 69, 4-fluoro-N-(2-((2R,6S,11R)-8-hydroxy-3,11-dimethyl-2,3,4,5-tetrahydro-2,6-methanobenzo[d]azocin-6(1H)-yl)ethyl)-benzenesulfonamide] | 14.7 ± 0.88 | – | – | – | – | 59.3 ± 1.2 | – | 2.97 ± 0.34 | 5.42 ± 1.11
8 | C[C@H]1[C@H]2Cc3ccc(O)cc3[C@]1(CCNC(=O)Nc1ccccc1F)CCN2C [Compound 78, 1-(2-fluorophenyl)-3-(2-((2R,6R,11R)-8-hydroxy-3,11-dimethyl-2,3,4,5-tetrahydro-2,6-methanobenzo[d]azocin-6(1H)-yl)ethyl)urea] | 67 ± 3.71 | – | – | – | – | 71 ± 3.61 | – | 90.5 ± 15.4 | 33.5 ± 4.9
9 | C[C@H]1[C@H]2Cc3ccc(O)cc3[C@]1(CCN1CCC(N(C3CC3)S(=O)(=O)c3ccccc3)CC1)CCN2C [Compound 7, N-cyclopropyl-N-(1-(2-((2R,6R,11R)-8-hydroxy-3,11-dimethyl-2,3,4,5-tetrahydro-2,6-methanobenzo[d]azocin-6(1H)-yl)ethyl)piperidin-4-yl)benzene-sulfonamide] | 23.4 ± 1.33 | 83.1 ± 1.96 | 99 ± 1 | – | – | 54.5 ± 4.33 | – | 503 ± 116 | 624 ± 65.9
10 | C[C@H]1[C@H]2Cc3ccc(O)cc3[C@]1(CC(=O)NCCc1ccc(S(N)(=O)=O)cc1)CCN2C [Compound 62, 2-((2R,6S,11R)-8-hydroxy-3,11-dimethyl-2,3,4,5-tetrahydro-2,6-methanobenzo[d]azocin-6(1H)-yl)-N-(4-sulfamoylphenethyl)acetamide] | -1 | 172 ± 18.7 | 49.7 ± 0.88 | 35.7 ± 1.67 | 1120 ± 53.4 | 17 ± 1.53 | – | – | 538 ± 22.9
11 | C[C@H]1[C@H]2Cc3ccc(O)cc3[C@]1(CCNC(=O)NS(=O)(=O)c1ccc(F)cc1)CCN2C [Compound 66, 4-fluoro-N-((2-((2R,6R,11R)-8-hydroxy-3,11-dimethyl-2,3,4,5-tetrahydro-2,6-methanobenzo[d]azocin-6(1H)-yl)-ethyl)carbamoyl)benzenesul-fonamide] | 15.9 ± 0.72 | – | – | – | – | 37.3 ± 0.88 | – | 2290 ± 703 | 174 ± 13.1
12 | C[C@H]1[C@H]2Cc3ccc(O)cc3[C@]1(CCNC(=O)Nc1ccccc1)CCN2C [Compound 68, 1-(2-((2R,6R,11R)-8-hydroxy-3,11-dimethyl-2,3,4,5-tetrahydro-2,6-methano-benzo[d]azocin-6(1H)-yl)ethyl)-3-phenylurea] | 72.3 ± 0.88 | – | – | – | – | 75.8 ± 2.39 | – | 18.9 ± 1.23 | 28.5 ± 2.07
13 | C[C@H]1[C@H]2Cc3ccc(O)cc3[C@]1(CCNC(=O)Nc1cccc(F)c1)CCN2C [Compound 79, 1-(3-fluorophenyl)-3-(2-((2R,6R,11R)-8-hydroxy-3,11-dimethyl-2,3,4,5-tetrahydro-2,6-methanobenzo[d]azocin-6(1H)-yl)ethyl)urea] | 58.9 ± 7.55 | – | – | – | – | 71.6 ± 5.96 | – | 39.1 ± 7.13 | 19.7 ± 1.11
14 | C[C@H]1[C@H]2Cc3ccc(O)cc3[C@]1(CCNC(=O)c1ccc(C(N)=O)cc1)CCN2C [Compound 86, N-(2-((2R,6R,11R)-8-hydroxy-3,11-dimethyl-2,3,4,5-tetrahydro-2,6-methanobenzo[d]azocin-6(1H)-yl)ethyl)terephthalamide] | 11.2 ± 0.69 | – | – | – | – | 48.2 ± 1.26 | – | 289 ± 91.8 | 252 ± 23.5
15 | C[C@H]1[C@H]2Cc3ccc(O)cc3[C@]1(CCNC(=O)Nc1ccc(F)cc1)CCN2CC1CC1 [Compound 18, 1-(2-((2R,6R,11R)-3-(cyclopropyl-methyl)-8-hydroxy-11-methyl-2,3,4,5-tetrahydro-2,6-methanobenzo[d]azocin-6(1H)-yl)ethyl)-3-(4-fluorophenyl)urea] | 4.38 ± 0.35 | – | – | – | – | 22.4 ± 1.04 | – | 0.31 ± 0.063 | 0.12
16 | COc1ccc2c(c1)[C@@]1(CCOCc3ccccc3)CCN(C)[C@@H](C2)[C@H]1C [Compound 47, (2S,6R,11S)-6-(2-(benzyloxy)ethyl)-8-methoxy-3,11-dimethyl-1,2,3,4,5,6-hexahydro-2,6-methanobenzo[d]azocine] | – | 8990 ± 1630 | 72.3 ± 3.84 | 99.3 ± 0.67 | 3750 ± 207 | – | – | – | –
17 | C[C@H]1[C@H]2Cc3ccc(O)cc3C1(CCNS(=O)(=O)N(C)C)CCN2C [Compound 80] | 2.62 ± 0.36 | – | – | – | – | 27.9 ± 0.47 | – | 1180 ± 822 | 134 ± 3.21
18 | COc1ccc2c(c1)[C@]1(CCNCCCn3ccnc3)CCN(C)[C@H](C2)[C@@H]1C [Compound 55, 3-(1H-imidazol-1-yl)-N-(2-((2R,6R,11R)-8-methoxy-3,11-dimethyl-2,3,4,5-tetrahydro-2,6-methanobenzo[d]azocin-6(1H)-yl)ethyl)propan-1-amine] | – | 14500 ± 653 | 82 ± 2.65 | 113 ± 1.45 | 14700 ± 1240 | – | – | – | –
19 | COc1ccc2c(c1)[C@]1(CCN(C)CCCN(C)C)CCN(C)[C@H](C2)[C@@H]1C [Compound 54] | – | 18700 ± 1890 | 95 ± 2.65 | 125 ± 1.53 | 9860 ± 349 | – | – | – | –
20 | C[C@H]1[C@H]2Cc3ccc(O)cc3[C@]1(CCNC(=O)[C@@H]1CCC(=O)N1)CCN2C [Compound 72, (S)-N-(2-((2R,6R,11R)-8-hydroxy-3,11-dimethyl-2,3,4,5-tetrahydro-2,6-methano-benzo[d]azocin-6(1H)-yl)ethyl)-5-oxopyrrolidine-2-carboxamide] | 5.8 ± 0.42 | – | – | – | – | 37.2 ± 1.8 | – | 267 ± 63.3 | 241 ± 56.7
21 | COc1ccc2c(c1)[C@]1(CCN3CCC[C@@H]3C(=O)O)CCN(C)[C@H](C2)[C@@H]1C [Compound 60, (2-((2R,6S,11R)-8-methoxy-3,11-dimethyl-2,3,4,5-tetrahydro-2,6-methanobenzo[d]azocin-6(1H)-yl)ethyl)-D-proline] | – | 4910 ± 1080 | 49 ± 3.61 | 97.7 ± 8.09 | – | – | – | – | –
22 | COc1ccc2c(c1)[C@]1(CCN3CCC(N(C4CC4)S(=O)(=O)c4ccc(Cl)cc4)CC3)CCN(C)[C@H](C2)[C@@H]1C [Compound 53, 4-chloro-N-cyclopropyl-N-(1-(2-((2R,6R,11R)-8-methoxy-3,11-dimethyl-2,3,4,5-tetrahydro-2,6-methanobenzo-[d]azocin-6(1H)-yl)ethyl)piperidin-4-yl)-benzenesulfonamide] | – | 1250 ± 85.4 | 63.3 ± 2.03 | 13.3 ± 2.19 | 7000 ± 3060 | – | – | – | –
23 | C[C@H]1[C@H]2Cc3ccc(O)cc3[C@]1(CCN1CCN(C(c3ccc(F)cc3)c3ccc(F)cc3)CC1)CCN2C [Compound 8, (2R,6R,11R)-6-(2-(4-(bis(4-fluoro-phenyl)methyl)piperazin-1-yl)ethyl)-3,11-dimethyl-1,2,3,4,5,6-hexahydro-2,6-methanobenzo[d]azocin-8-ol] | 70.7 ± 6.98 | 72.7 ± 4.92 | 100 ± 3.06 | – | – | 47 ± 1.53 | – | 4710 ± 227 | 796 ± 72.2
